Laboratory results from patent US9796741B2 (Achillion Pharmaceuticals, Inc., priority 2014, dated 2017).

Target: Human factor D (Homo sapiens (Human), UniProt P00746)
Test: Human Factor D Assay
Type: biochemical
Details: not given
Procedure, shortened: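 Serum-purified factor D (80 nM final) preincubated 5 min at room temperature with compound in 50 mM Tris, 1M NaCl, pH 7.5. Z-L-Lys-SBzl and DTNB added at 100 μM each; OD405 followed kinetically over 30 min. IC50 by non-linear regression of % inhibition.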

Sequence of Human factor D (P00746 26-253): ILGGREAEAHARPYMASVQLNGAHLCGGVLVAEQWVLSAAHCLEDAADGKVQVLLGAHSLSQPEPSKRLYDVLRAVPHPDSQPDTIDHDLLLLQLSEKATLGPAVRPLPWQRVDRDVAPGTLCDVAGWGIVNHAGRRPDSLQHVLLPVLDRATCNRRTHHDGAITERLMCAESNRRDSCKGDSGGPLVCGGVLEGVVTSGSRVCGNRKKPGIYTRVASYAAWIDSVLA

| SMILES | IC50 |
| --- | --- |
| NC(=O)c1nn(CC(=O)N2C[C@H](F)C[C@H]2C(=O)Nc2ncc(Br)cn2)c2ccc(-c3ccnnc3)cc12 [Compound 109, 1-(2-((2S,4R)-2-(5-bromopyrimidin-2-ylcarbamoyl)-4-fluoropyrrolidin-1-yl)-2-oxoethyl)-5-(pyridazin-4-yl)-1H-indazole-3-carboxamide] | 1 to 10 µM |
| CC(=O)c1cn(CC(=O)N2C[C@H](F)C[C@H]2C(=O)NC2CCCN(c3cc(C)ccc3F)C2=O)c2ccc(-c3ccnnc3)cc12 (stereo partly drawn) [Compound 125, (2S,4R)-1-(2-(3-acetyl-5-(pyridazin-4-yl)-1H-indol-1-yl)acetyl)-4-fluoro-N-(1-(2-fluoro-5-methylphenyl)-2-oxopiperidin-3-yl)pyrrolidine-2-carboxamide] | 1 to 10 µM |

Same assay, conditions: human factor D 80 nM, substrate Z-L-Lys-SBzl, DTNB

| SMILES | IC50 |
| --- | --- |
| CC(=O)c1cn(CC(=O)N2C[C@H](F)C[C@H]2C(=O)Nc2nc(-c3ccccc3Cl)ns2)c2ccc(-c3ccnnc3)cc12 [Compound 99, (2S,4R)-1-(2-(3-acetyl-5-(pyridazin-4-yl)-1H-indol-1-yl)acetyl)-N-(3-(2-chlorophenyl)-1,2,4-thiadiazol-5-yl)-4-fluoropyrrolidine-2-carboxamide] | < 1 µM |
| CC(=O)c1cn(CC(=O)N2C[C@H](F)C[C@H]2C(=O)Nc2cccc(Br)n2)c2ccc(-c3ccccc3Cl)cc12 [Compound 100, (2S,4R)-1-(2-(3-acetyl-5-(2-chlorophenyl)-1H-indol-1-yl)acetyl)-N-(6-bromopyridin-2-yl)-4-fluoropyrrolidine-2-carboxamide] | < 1 µM |
| Cc1ncc(-c2ccc3c(c2)c(C(N)=O)nn3CC(=O)N2C[C@H](F)C[C@H]2C(=O)Nc2cccc(Br)n2)cn1 [Compound 101, 1-(2-((2S,4R)-2-(6-bromopyridin-2-ylcarbamoyl)-4-fluoropyrrolidin-1-yl)-2-oxoethyl)-5-(2-methylpyrimidin-5-yl)-1H-indazole-3-carboxamide] | < 1 µM |
| CC(=O)c1cn(CC(=O)N2C[C@H](F)C[C@H]2C(=O)Nc2cccc(-c3ccccc3Cl)c2F)c2ccc(-c3cnc(C)nc3)cc12 [Compound 102, (2S,4R)-1-(2-(3-acetyl-5-(2-methylpyrimidin-5-yl)-1H-indol-1-yl)acetyl)-N-(2′-chloro-2-fluorobiphenyl-3-yl)-4-fluoropyrrolidine-2-carboxamide] | < 1 µM |
| Cc1ncc(-c2ccc3c(c2)c(C(N)=O)nn3CC(=O)N2C[C@H](F)C[C@H]2C(=O)Nc2cccc(-c3ccccc3Cl)c2F)cn1 [Compound 103, 1-(2-((2S,4R)-2-(2′-chloro-2-fluorobiphenyl-3-ylcarbamoyl)-4-fluoropyrrolidin-1-yl)-2-oxoethyl)-5-(2-methylpyrimidin-5-yl)-1H-indazole-3-carboxamide] | < 1 µM |
| NC(=O)c1nn(CC(=O)N2C[C@H](F)C[C@H]2C(=O)Nc2cccc3c2CN(c2ccccn2)C3)c2ccc(-c3ccnnc3)cc12 [Compound 104, 1-(2-((2S,4R)-4-fluoro-2-(2-(pyridin-2-yl)isoindolin-4-ylcarbamoyl)pyrrolidin-1-yl)-2-oxoethyl)-5-(pyridazin-4-yl)-1H-indazole-3-carboxamide] | > 10 µM |
| CC(=O)c1cn(CC(=O)N2C[C@H](F)C[C@H]2C(=O)Nc2cccc3c2CN(c2ccccn2)C3)c2ccc(-c3ccnnc3)cc12 [Compound 105, (2S,4R)-1-(2-(3-acetyl-5-(pyridazin-4-yl)-1H-indol-1-yl)acetyl)-4-fluoro-N-(2-(pyridin-2-yl)isoindolin-4-yl)pyrrolidine-2-carboxamide] | > 10 µM |
| CC(=O)c1cn(CC(=O)N2C[C@H](F)C[C@H]2C(=O)NC2CCCc3nc(-c4ccc(F)cc4)sc32)c2ccc(-c3ccnnc3)cc12 (stereo partly drawn) [Compound 106, (2S,4R)-1-(2-(3-acetyl-5-(pyridazin-4-yl)-1H-indol-1-yl)acetyl)-4-fluoro-N-(2-(4-fluorophenyl)-4,5,6,7-tetrahydrobenzo[d]thiazol-7-yl) pyrrolidine-2-carboxamide] | > 10 µM |
| NC(=O)c1nn(CC(=O)N2C[C@H](F)C[C@H]2C(=O)NC2CCCc3nc(-c4ccc(F)cc4)sc32)c2ccc(-c3ccnnc3)cc12 (stereo partly drawn) [Compound 107, 1-(2-((2S,4R)-4-fluoro-2-(2-(4-fluorophenyl)-4,5,6,7-tetrahydrobenzo[d]thiazol-7-ylcarbamoyl)pyrrolidin-1-yl)-2-oxoethyl)-5-(pyridazin-4-yl)-1H-indazole-3-carboxamide] | > 10 µM |
| CC(=O)c1cn(CC(=O)N2C[C@H](F)C[C@H]2C(=O)Nc2ccc3ccccc3c2)c2ccc(-c3ccnnc3)cc12 [Compound 110, (2S,4R)-1-(2-(3-acetyl-5-(pyridazin-4-yl)-1H-indol-1-yl)acetyl)-4-fluoro-N-(naphthalen-2-yl)pyrrolidine-2-carboxamide] | > 10 µM |
| NC(=O)c1nn(CC(=O)N2C[C@H](F)C[C@H]2C(=O)Nc2noc3cc(C(F)(F)F)ccc23)c2ccc(-c3ccnnc3)cc12 [Compound 112, 1-(2-((2S,4R)-4-fluoro-2-(6-(trifluoromethyl)benzo[d]isoxazol-3-ylcarbamoyl)pyrrolidin-1-yl)-2-oxoethyl)-5-(pyridazin-4-yl)-1H-indazole-3-carboxamide] | > 10 µM |
| Cc1cc(NC(=O)[C@@H]2C[C@@H](F)CN2C(=O)Cn2nc(C(N)=O)c3cc(-c4ccnnc4)ccc32)n2nc(C(F)(F)F)nc2n1 [Compound 113, 1-(2-((2S,4R)-4-fluoro-2-(5-methyl-2-(trifluoromethyl)-[1,2,4]triazolo[1,5-a]pyrimidin-7-ylcarbamoyl)pyrrolidin-1-yl)-2-oxoethyl)-5-(pyridazin-4-yl)-1H-indazole-3-carboxamide] | > 10 µM |
| NC(=O)c1nn(CC(=O)N2C[C@H](F)C[C@H]2C(=O)Nc2nnc(-c3ccccc3Cl)s2)c2ccc(-c3ccnnc3)cc12 [Compound 115, 1-(2-((2S,4R)-2-(5-(2-chlorophenyl)-1,3,4-thiadiazol-2-ylcarbamoyl)-4-fluoropyrrolidin-1-yl)-2-oxoethyl)-5-(pyridazin-4-yl)-1H-indazole-3-carboxamide] | > 10 µM |
| CC(=O)c1cn(CC(=O)N2C[C@H](F)C[C@H]2C(=O)Nc2nnc(-c3ccc(Cl)c(Cl)c3)s2)c2ccc(-c3ccnnc3)cc12 [Compound 117, (2S,4R)-1-(2-(3-acetyl-5-(pyridazin-4-yl)-1H-indol-1-yl)acetyl)-N-(5-(3,4-dichlorophenyl)-1,3,4-thiadiazol-2-yl)-4-fluoropyrrolidine-2-carboxamide] | > 10 µM |
| CC(=O)Nc1ncc(-c2ccc3c(c2)c(C(C)=O)cn3CC(=O)N2C[C@H](F)C[C@H]2C(=O)Nc2cccc(Br)n2)cn1 [Compound 118, (2S,4R)-1-(2-(5-(2-acetamidopyrimidin-5-yl)-3-acetyl-1H-indol-1-yl)acetyl)-N-(6-bromopyridin-2-yl)-4-fluoropyrrolidine-2-carboxamide] | < 1 µM |
| CC(=O)c1cn(CC(=O)N2C[C@H](F)C[C@H]2C(=O)Nc2cccc(Br)n2)c2ccc(-c3cccc(Cl)c3)cc12 [Compound 119, (2S,4R)-1-(2-(3-acetyl-5-(3-chlorophenyl)-1H-indol-1-yl)acetyl)-N-(6-bromopyridin-2-yl)-4-fluoropyrrolidine-2-carboxamide] | < 1 µM |
| CC(=O)c1cn(CC(=O)N2C[C@H](F)C[C@H]2C(=O)Nc2cccc(Br)n2)c2ccc(-c3ccc(C)nc3)cc12 [Compound 120, (2S,4R)-1-(2-(3-acetyl-5-(6-methylpyridin-3-yl)-1H-indol-1-yl)acetyl)-N-(6-bromopyridin-2-yl)-4-fluoropyrrolidine-2-carboxamide] | < 1 µM |
| CC(=O)c1cn(CC(=O)N2C[C@H](F)C[C@H]2C(=O)Nc2cccc(-c3ccccc3Cl)c2F)c2ccc(-c3cnnc(C)c3)cc12 [Compound 121, (2S,4R)-1-(2-(3-acetyl-5-(6-methylpyridazin-4-yl)-1H-indol-1-yl)acetyl)-N-(2′-chloro-2-fluorobiphenyl-3-yl)-4-fluoropyrrolidine-2-carboxamide] | < 1 µM |
| COc1cc(C)cc2c1OCCC2NC(=O)[C@@H]1C[C@@H](F)CN1C(=O)Cn1nc(C(N)=O)c2cc(-c3ccnnc3)ccc21 (stereo partly drawn) [Compound 122, 1-(2-((2S,4R)-4-fluoro-2-(8-methoxy-6-methylchroman-4-ylcarbamoyl)pyrrolidin-1-yl)-2-oxoethyl)-5-(pyridazin-4-yl)-1H-indazole-3-carboxamide] | > 10 µM |
| COc1cc(C)cc2c1OCCC2NC(=O)[C@@H]1C[C@@H](F)CN1C(=O)Cn1cc(C(C)=O)c2cc(-c3ccnnc3)ccc21 (stereo partly drawn) [Compound 123, (2S,4R)-1-(2-(3-acetyl-5-(pyridazin-4-yl)-1H-indol-1-yl)acetyl)-4-fluoro-N-(8-methoxy-6-methylchroman-4-yl)pyrrolidine-2-carboxamide] | > 10 µM |
| CC(=O)c1cn(CC(=O)N2C[C@H](F)C[C@H]2C(=O)Nc2cccc(Cl)c2C(F)(F)F)c2ccc(-c3ccnnc3)cc12 [Compound 126, (2S,4R)-1-(2-(3-acetyl-5-(pyridazin-4-yl)-1H-indol-1-yl)acetyl)-N-(3-chloro-2-(trifluoromethyl)phenyl)-4-fluoropyrrolidine-2-carboxamide] | > 10 µM |
| CC(=O)c1cn(CC(=O)N2C[C@H](F)C[C@H]2C(=O)Nc2cncc(Br)n2)c2ccc(-c3ccnnc3)cc12 [Compound 127, (2S,4R)-1-(2-(3-acetyl-5-(pyridazin-4-yl)-1H-indol-1-yl)acetyl)-N-(6-bromopyrazin-2-yl)-4-fluoropyrrolidine-2-carboxamide] | < 1 µM |
| NC(=O)c1nn(CC(=O)N2C[C@H](F)C[C@H]2C(=O)Nc2cncc(Br)n2)c2ccc(-c3ccnnc3)cc12 [Compound 128, 1-(2-((2S,4R)-2-(6-bromopyrazin-2-ylcarbamoyl)-4-fluoropyrrolidin-1-yl)-2-oxoethyl)-5-(pyridazin-4-yl)-1H-indazole-3-carboxamide] | < 1 µM |
| NC(=O)c1nn(CC(=O)N2C[C@H](F)C[C@H]2C(=O)Nc2ccc3ccccc3c2)c2ccc(-c3ccnnc3)cc12 [Compound 131, 1-(2-((2S,4R)-4-fluoro-2-(naphthalen-2-ylcarbamoyl)pyrrolidin-1-yl)-2-oxoethyl)-5-(pyridazin-4-yl)-1H-indazole-3-carboxamide] | > 10 µM |
